For experiment [1], the system named is U2OS cells (human osteosarcoma). The experiment is described as follows: Inhibition of cell proliferation, AlamarBlue fluorescent assay, U2OS. The following applies: 48 hours, cancer cell line. Format: cell-based. The protocol:
(§1) The cancer cell lines used in this study included human lung carcinoma (A549), human breast carcinoma (BT20 and MCF-7) and human osteosarcoma (U2OS), with the normal cell lines human peripheral lung epithelial cells (HPL1A) and human mammary epithelial cells (HMEC) serving as controls. A549, BT20, MCF-7, U2OS and HMEC cells were purchased from American Type Culture Collection (ATCC, USA), and HPL1A cells were obtained from Nagoya University, Japan. A549 and BT20 were grown in RPMI-1640 (Sigma), MCF-7 was grown in Dulbecco's Modified Eagle Medium (DMEM) (Sigma) supplemented with 0.01 mg/ml human recombinant insulin (Sigma), U2OS and HMEC were grown in McCoy's 5A (ATCC), and HPL1A was grown in DMEM/F-12K (Sigma). The mediums were supplemented with 10% Fetal Bovine Serum (FBS) (Gibco), 1% penicillin and streptomycin and incubated in a humidified atmosphere with 5% CO2 at 37° C.
The proliferation inhibition potential of cis- and trans-gnetin H was determined by a fluorescence dye staining method. Cells were seeded in a 96-well tissue culture-treated plate (BD Falcon) at a density of 4000 cells/well, and treated with cis- or trans-gnetin H for 48 hours. AlamarBlue dye (Invitrogen) was used to assess the viability of cells according to the manufacturer's instructions; the fluorescent intensity was read on a SpectraMax M2e microplate reader (Molecular Devices Inc.). […]

Experiment [2] has as its system HPL1A cells (human peripheral lung epithelial cells). Description: Inhibition of cell proliferation, AlamarBlue fluorescent assay, HPL1A normal control. It is filed as cell-based. The following applies: for inhibitory effects on normal HPL1A cells: 10 uM, up to 48 hours; for IC50: Homo sapiens, HPL1A, 48 hours, AlamarBlue, normal cell line. The procedure: as §1
The proliferation inhibition potential of cis- and trans-gnetin H was determined by a fluorescence dye staining method. Cells were seeded in a 96-well tissue culture-treated plate (BD Falcon) at a density of 4000 cells/well, and treated with cis- or trans-gnetin H for 48 hours. AlamarBlue dye (Invitrogen) was used to assess the viability of cells according to the manufacturer's instructions; the fluorescent intensity was read on a SpectraMax M2e microplate reader (Molecular Devices Inc.).
For the determination of IC50 values, cells were treated with a serial dilution (320 μM, 100 μM, 32 μM, 10 μM, 3.2 μM, and 0.32 μM) of cis- or trans-gnetin H for 48 hours. Cell viability was determined with AlamarBlue dye (Invitrogen) and the IC50 values were calculated using non-linear regression analysis.

Another experiment has as its system A549 cells. The experiment is described as follows: Cell cycle analysis by flow cytometry, A549. The following applies: 100 μM, 24 hours. Format: cell-based, human. The procedure: (§2) A549 and BT20 cells were first synchronized in the G0 phase by culturing cells for 24 hours in serum-free medium and then treated with 100 μM cis- or trans-gnetin H for 24 hours, respectively. Cell cycle analysis was done using propidium iodide (PI) staining as described (An et al., Mol. Cancer Ther. 2007; 6:61-9) and the cells were analyzed on a Guava Flow Cytometer with InCyte software (Millipore).

For a further experiment, the system named is BT20 cells. Description: Cell cycle analysis by flow cytometry, BT20. The following applies: 100 μM, 24 hours. Format: cell-based, human. The procedure:
as §2

Experiment [3] deals with NF-κB nuclear translocation in A549 cells. The experiment is described as follows: Inhibition of TNF-α activated NF-κB translocation, Arrayscan VTI HCS Reader. It is filed as cell-based, human. The following applies: 100 μM for 2 hrs, then 10 ng/ml TNF-α. The protocol: A549 cells were seeded in 96 well plates (BD Falcon) at a density of 4000 cells/well, and were treated with 100 μM cis- or trans-gnetin H for 2 hrs, followed by treatment of 10 ng/ml tumor necrosis factor-alpha (TNF-α) (Sigma). Untreated cells and cells treated with only 10 ng/ml TNF-α served as controls. Cells were fixed, permeabilized, and stained with Nuclear factor kappa B (NF-κB) primary antibody, Dylight 488 conjugated secondary antibody, and Hoechst 33342 dye, sequentially. The Hoechst and DyLight fluorophores respectively detect changes in nuclear morphology (blue fluorescence) and NF-κB distribution (green fluorescence). Images were acquired at different channels using suitable filters with a 20× objective and analyzed on the Arrayscan VTI HCS Reader (Thermo Scientific). The Nuclear Translocation BioApplication software (Thermo Scientific) was used for image acquisition and analysis. For each well, at least 400 cells were automatically acquired and analyzed. The translocation index was calculated by measuring the average intensity difference of NF-κB between the identified cytoplasmic region and nuclear region (MEAN_CircRingAvgIntenDiffCh2). Experiments were performed in triplicates.

Experiment [4] has as its system IL-1β in LPS-stimulated THP-1 cells. Description: Cytokine response by ELISA, IL-1β. Format: cell-based, human. The following applies: cis 12.5-50 μM, trans 8-30 μM, 20 ng/ml LPS, p<0.05. The procedure: (§3) THP-1 cells were maintained in RPMI 1640 medium supplemented with 10% complement-inactivated FBS and 1% penicillin/streptomycin (complete culture medium) at 37° C. with 5% CO2 supplemented. Cell concentrations were adjusted to desired concentrations for each experiment by centrifugation at 500×g for 5 min and resuspended in complete culture medium with 100 nM of PMA. Cell concentration was adjusted to 5×10^5 cells/ml for all assays and 2.5×10^5 cells/ml were used for NF-κB nuclear translocation assay. Cells were seeded onto 96-, 24-, or 12-well plates and incubated for 48 to 72 h to allow for differentiation. Cells were washed with serum-free RPMI 1640 medium before each experiment to remove the undifferentiated cells.
Differentiated THP-1 cells were pretreated with various concentrations of cis-gnetin H, trans-gnetin H, or 1 μM of dexamethasone for 1 h and stimulated with 20 ng/ml of LPS for 4 h. Dexamethasone is a synthetic glucocorticoid that suppresses cytokine response and was used as a positive control (Abraham et al., 2006, J. Exp. Med., 203:1883-9; Steer et al., J. Biol. Chem., 2000, 275(24):18432-40). Supernatants were collected for human cytokine ELISAs and the manufacturer's protocol was followed to assess the cytokine response. Cells remaining after the supernatant collection were tested for relative viability by Alamar Blue cytotoxicity assay as described earlier.

Experiment [5] has as its system phosphorylated p65 (Ser536) in LPS-stimulated THP-1 cells. Description: Western blot, p65 phosphorylation. Format: cell-based, human. The procedure:
as §3
Differentiated THP-1 cells were pretreated with various concentrations of cis-gnetin H, trans-gnetin H, or 10 μM of Bay 11-7082 for 1 h and stimulated with 1 μg/ml of LPS for 15 min. Cells were lysed with radio-immunoprecipitation assay (RIPA; 1% Triton X-100, 0.5% Sodium deoxycholate, 0.1% sodium dodecyl sulfate, 150 mM sodium chloride, and 50 mM Tris-chloride) lysis buffer that contained protease and phosphatase inhibitor cocktail. Cell lysates were then tested for protein concentration using a BCA protein assay, and diluted with RIPA lysis buffer to normalize protein concentration in all samples. […]

Molecules are shown by their SMILES.

The compound `Oc1ccc(/C=C\c2c3c(cc4c2[C@H](c2cc(O)cc(O)c2)[C@@H](c2ccc(O)cc2)O4)O[C@H](c2ccc(O)cc2)[C@H]3c2cc(O)cc(O)c2)cc1` [cis-gnetin H] showed an IC50 in experiment [1] of 9.32 µM. In addition, in experiment [2], the “inhibitory effects on normal HPL1A cells” value was “no such obvious inhibitory effects” and the midpoint of inhibition, the IC50, lay at 91 µM. In the experiment on A549 cells, the “G0-G1 subpopulation, A549” value is listed as “increased significantly”; the “M and G2-S subpopulation, A549” value is given as “significant decrease”. In the experiment with BT20 cells, the “G0-G1 subpopulation, BT20” value is “increased significantly”; the “M and G2-S subpopulation, BT20” value is listed as “significant decrease”. For the same compound, in experiment [3], the “TNF-α-induced NF-κB nuclear translocation” value is listed as “significant inhibition”. Besides, the “inhibition of IL-1β” value in experiment [4] was “significant inhibition”. Moreover, the p65 phosphorylation entry in experiment [5] (only at the highest concentration, 50 μM) was “significantly inhibited”.
On to `Oc1ccc(/C=C/c2c3c(cc4c2[C@H](c2cc(O)cc(O)c2)[C@@H](c2ccc(O)cc2)O4)O[C@H](c2ccc(O)cc2)[C@H]3c2cc(O)cc(O)c2)cc1` [trans-gnetin H], for which the IC50 in experiment [1] is 3.1 µM. Further, in experiment [2], the “inhibitory effects on normal HPL1A cells” value is on record as “no such obvious inhibitory effects” and 72 µM corresponded to half-maximal inhibition (IC50). In the experiment on A549 cells, the “G0-G1 subpopulation, A549” value is given as “increased significantly”; the “M and G2-S subpopulation, A549” value is on record as “significant decrease”. Further, in the experiment on BT20 cells, the “G0-G1 subpopulation, BT20” value is “increased significantly”; the “M and G2-S subpopulation, BT20” value is listed as “significant decrease”. For the same compound, the “TNF-α-induced NF-κB nuclear translocation” value in experiment [3] was “significant inhibition”. The “inhibition of IL-1β” value in experiment [4] is “significant inhibition”. Besides, the p65 phosphorylation result in experiment [5] (both 15 and 30 μM) is “significantly inhibited”.
